Measurements from paper PMC10470178, “Long-acting lenacapavir protects macaques against intravenous challenge with simian-tropic HIV” (eBioMedicine, 2023).
Where “and” joins values, the source holds several entries; their conditions need not be identical. Equal values may be shown once.

Legend:
[1] = tested on: HIV-1 NL4-3; test: Multi-round viral replication assay in SupT1-CCR5 cells, HIV-1 NL4-3; format: cell-based; conditions: Human immunodeficiency virus 1, NL43, 168 h, supernatant vRNA 7 days post-infection, mean ± SD of three independent experiments, read-out: mean EC50 against HIV-1 NL4-3
Procedure: (§1) Infectious stocks of stHIV-A19,[23] HIV-1 NL4-3, and SIVmac239 were produced in HEK-293T (RRID: CVCL_1926) cells transfected with full-length viral genome plasmids using the TransIT HEK-293 transfection reagent (Mirus Bio) according to the manufacturer’s instructions. Virus stock infectious titres were determined on TZM-bl reporter cells (RRID: CVCL_B478) as previously described.[26] For experiments using SupT1-CCR5 target cells (RRID: CVCL_X633),[27] cultures were maintained in RPMI 1640 medium supplemented with 10% foetal bovine serum (FBS), 2 mM glutamine, 100 U/ml penicillin, and 100 μg/ml streptomycin. […] Cells were then washed three times to remove input virus, counted, and cultured in triplicate in growth media containing serial threefold dilutions of LEN or no LEN (control). […] Culture supernatants were collected 7 days post-inoculation, clarified by centrifugation, and stored at −80 °C for later quantification of vRNA by quantitative reverse transcription polymerase chain reaction (qRT-PCR). […] The stHIV-A19 stock was quantified with a SYBR Green-based qPCR-based product-enhanced RT (PERT) assay using a purified reverse transcriptase (RT) protein standard, as previously described.[28] […] After 7 days, the virus in culture supernatants was quantified using the PERT assay. […]

[2] = tested on: SHIVs; design: method as in PMID 34875675; conditions: SHIVs contain SIV CA derived from SIVmac239; cited from earlier work
[3] = tested on: stHIV-A19; test: Multi-round replication assay of stHIV-A19 in pigtail macaque PBMCs (PERT readout); format: cell-based, simian-tropic HIV-1; conditions: for mean EC95 against stHIV-A19 in pigtail macaque PBMC: PTM PBMCs, three donors, RT in supernatant at 7 days, calculated from EC50 with Hill coefficient 3.51
Procedure: Infectious stocks of stHIV-A19,[23] HIV-1 NL4-3, and SIVmac239 were produced in HEK-293T (RRID: CVCL_1926) cells transfected with full-length viral genome plasmids using the TransIT HEK-293 transfection reagent (Mirus Bio) according to the manufacturer’s instructions. Virus stock infectious titres were determined on TZM-bl reporter cells (RRID: CVCL_B478) as previously described.[26] For experiments using SupT1-CCR5 target cells (RRID: CVCL_X633),[27] cultures were maintained in RPMI 1640 medium supplemented with 10% foetal bovine serum (FBS), 2 mM glutamine, 100 U/ml penicillin, and 100 μg/ml streptomycin. SupT1-CCR5 cells were inoculated with stHIV-A19, HIV-1 NL4-3, or SIVmac239 at a multiplicity of infection (MOI) = 0.0125 and cultured at 37 °C for 4 h. Cells were then washed three times to remove input virus, counted, and cultured in triplicate in growth media containing serial threefold dilutions of LEN or no LEN (control). The concentration of DMSO (LEN vehicle) was maintained at 0.5% for all cultures. Culture supernatants were collected 7 days post-inoculation, clarified by centrifugation, and stored at −80 °C for later quantification of vRNA by quantitative reverse transcription polymerase chain reaction (qRT-PCR). Primary human peripheral blood mononuclear cells (PBMCs) from anonymous HIV-negative donors were isolated from leukopaks obtained from the New York Blood Center for experiments using primary human and PTM PBMC. […] The stHIV-A19 stock was quantified with a SYBR Green-based qPCR-based product-enhanced RT (PERT) assay using a purified reverse transcriptase (RT) protein standard, as previously described.[28] […] After 7 days, the virus in culture supernatants was quantified using the PERT assay. […] The EC95 for LEN against stHIV-A19 was then calculated from its corresponding EC50 values using the ECanything equation: ECF = EC50 × (F/100-F)^1/n, where F equals the percent response (e.g., 95) and n equals the Hill coefficient for LEN (n = 3.51) as previously described.[16]

[4] = tested on: stHIV-A19; test: Multi-round replication assay of stHIV-A19 in primary human PBMCs (PERT readout); format: cell-based, simian-tropic HIV-1; conditions: three donors, RT in supernatant at 7 days
Procedure: as §1

[5] = Equilibrium dialysis shift assay in PTM plasma; format: in vitro ADME, pigtail macaque; conditions: competitive equilibrium dialysis, LEN 2 μM in 10% PTM plasma, 4 donors, 24 h, 37 °C
Procedure: The protein shift ratio for LEN in PTM plasma was determined by competitive equilibrium dialysis. Lenacapavir (2 μM) was spiked into 10% PTM plasma from each of 4 individual donors (3 males and 1 female) and then placed in triplicate into one side of assembled dialysis cells (Harvard Apparatus), followed by the addition of RPMI cell culture medium containing 10% foetal bovine serum to the opposite side of each cell. After a 24-h equilibration period at 37 °C, plasma and cell culture medium samples were collected and individually mixed 1:1 with the reciprocal blank matrix. Samples were then deproteinated following the addition of acetonitrile (1:4 ratio, respectively) containing 50 ng/ml warfarin and 50 ng/ml ritonavir as an internal standard and analysed using a liquid chromatography with tandem mass spectrometry (LC-MS/MS) method utilizing a SciEx API 4000 triple quadrupole mass spectrometer equipped with a Shimadzu Nexera UPLC system. The mean plasma protein binding-adjusted shift for LEN in 100% PTM plasma obtained from 4 independent experiments, each using a single PTM plasma donor performed in triplicate, was then calculated using a non-linear equation.

[6] = tested on: stHIV-A19; test: Multi-round viral replication assay in SupT1-CCR5 cells, stHIV-A19; format: cell-based, simian-tropic HIV-1; conditions: Human immunodeficiency virus 1, 168 h, supernatant vRNA 7 days post-infection, mean ± SD of three independent experiments, read-out: mean EC50 against stHIV-A19
Procedure: as §1

[7] = tested on: HIV-1; design: method as in PMID 32612233; conditions: people with HIV-1, monotherapy, 450 mg, after 9 days of treatment; cited from earlier work
[8] = design: method as in earlier work; conditions: single SC injection of 900 mg LEN, Phase 1b clinical trial; cited from earlier work

CC(C)(C#Cc1ccc(-c2ccc(Cl)c3c(NS(C)(=O)=O)nn(CC(F)(F)F)c23)c([C@H](Cc2cc(F)cc(F)c2)NC(=O)Cn2nc(C(F)(F)F)c3c2C(F)(F)[C@@H]2C[C@H]32)n1)S(C)(=O)=O [LEN, Lenacapavir]
EC50 [1]: 0.086 nM
reduced sensitivity of SHIVs compared with HIV-1 [2]: 5–8 fold
plasma protein binding-adjusted EC95 (PA-EC95) against stHIV-A19 in PTMs ([3]; EC95 in PTM PBMC adjusted by 9.7-fold plasma shift): 1.46 (±0.07 SD) nM and 1.46 nM
mean EC95 against stHIV-A19 in pigtail macaque PBMC [3]: 149 ± 7 pM
mean EC95 against stHIV-A19 in pigtail macaque PBMC ([3]; listed as Lenacapavir): 149 (±7 SD) pM
mean EC95 against stHIV-A19 in human PBMC ([4]; calculated from EC50 with Hill coefficient 3.51): 122 ± 31 pM
mean EC95 against stHIV-A19 in human PBMC ([4]; calculated from EC50 with Hill coefficient 3.51, listed as Lenacapavir): 122 (±31 SD) pM
projected reduction of antiviral potency in 100% PTM plasma vs complete cell culture media (protein shift) [5]: 9.7 fold
EC50 [6]: 0.091 nM
maximum reductions in plasma viral loads [7]: > 100 fold
mean plasma drug concentrations relative to PA-EC95, maintained for 6 months [8]: ≥ 6 fold
